Experimental data taken from ChEMBL document CHEMBL6096724, “Sulfonium Moieties as Ammonium Bioisosteres: Novel Ligands for the Alpha7 Nicotinic Acetylcholine Receptor” (J Med Chem, 2025).
pEC50, pIC50: −log10 of the molar value. Values belong to the compound of their own block, whether it stands above or below them. Active and inactive are the calls of the source. The rule behind the calls is not given here.

Key:
[1] = target: T1, Neuronal acetylcholine receptor subunit alpha-9 (Homo sapiens, UniProt Q9UGM1); assay: Silent agonist activity at human alpha9 nAChR expressed in acetylcholine-treated xenopus laevis oocytes at 30 uM by two electrode voltage-clamp assay; format: cell-based; settings: Oocyte, filed as agonist
[2] = target: T1, Neuronal acetylcholine receptor subunit alpha-9; assay: Activation of human alpha9 nAChR expressed in xenopus laevis oocytes at 30 uM by two electrode voltage-clamp assay; format: cell-based; settings: Oocyte
[3] = target: T2, Neuronal acetylcholine receptor subunit alpha-7 (Homo sapiens, UniProt P36544); assay: Silent agonist activity at human alpha7 nAChR expressed in acetylcholine-treated xenopus laevis oocytes at 30 uM in presence of PNU-120596 by two electrode voltage-clamp assay; format: cell-based; settings: Oocyte
[4] = target: T2, Neuronal acetylcholine receptor subunit alpha-7; assay: Agonist activity at human alpha7 nAChR expressed in xenopus laevis oocytes assessed as activation of acetylcholine-induced response by two electrode voltage-clamp assay (reference value: 1); format: cell-based; settings: Oocyte, filed as agonist
[5] = target: T2, Neuronal acetylcholine receptor subunit alpha-7; assay: Desensitization of human alpha7 nAChR expressed in acetylcholine-treated xenopus laevis oocytes at 30 uM pretreated with acetylcholine followed by compound treatment and re-treatment of acetylcholine by two electrode voltage-clamp assay; format: cell-based; settings: Oocyte
[6] = target: T2, Neuronal acetylcholine receptor subunit alpha-7; assay: Desensitization of human alpha7 nAChR expressed in acetylcholine-treated xenopus laevis oocytes at 30 uM by two electrode voltage-clamp assay; format: cell-based; settings: Oocyte
[7] = target: T2, Neuronal acetylcholine receptor subunit alpha-7; assay: Agonist activity at human alpha7 nAChR expressed in xenopus laevis oocytes assessed as activation of acetylcholine-induced response by two electrode voltage-clamp assay; format: cell-based, Oocyte
[8] = test system: Mus musculus; assay: Anti-allodynic effect in C57BL/6J mouse model of CFA-induced chronic inflammatory pain assessed as reduction in mechanical hypersensitivity at 0.3 to 1 mg/kg, ip measured for 6 hrs; format: functional, organism-based; settings: dose 0.3-1 mg/kg
[9] = target: T2, Neuronal acetylcholine receptor subunit alpha-7; assay: Silent agonist activity at human alpha7 nAChR expressed in acetylcholine-treated xenopus laevis oocytes assessed as potentiated response at 30 uM in presence of PNU-120596 by two electrode voltage-clamp assay; format: cell-based; settings: Oocyte, filed as agonist
[10] = test system: Mus musculus; assay: Effect on locomotor activity in C57BL/6J mouse model of CFA-induced chronic inflammatory pain at 1 mg/kg, ip measured for 0.5 to 6 hrs; format: functional, organism-based; settings: time 0.5-6 hrs
[11] = target: T2, Neuronal acetylcholine receptor subunit alpha-7; assay: Silent agonist activity at human alpha7 nAChR expressed in acetylcholine-treated xenopus laevis oocytes assessed as relative response at 30 uM by two electrode voltage-clamp assay; format: cell-based; settings: Oocyte, filed as agonist
[12] = test system: Mus musculus; assay: Anti-allodynic effect in C57BL/6J mouse model of CFA-induced chronic inflammatory pain assessed as reduction in mechanical hypersensitivity at 0.3 mg/kg, ip measured after 1 hr; format: functional, organism-based
[13] = test system: Mus musculus; assay: Effect on von Frey responses in C57BL/6J mouse model of CFA-induced chronic inflammatory pain at 0.3 to 1 mg/kg, ip measured for 0.5 to 6 hrs; format: functional, organism-based; settings: dose 0.3-1 mg/kg, time 0.5-6 hrs
[14] = test system: Mus musculus; assay: Anti-allodynic effect in C57BL/6J mouse model of CFA-induced chronic inflammatory pain assessed as reduction in mechanical hypersensitivity at 1 mg/kg, ip measured for 1 hr relative to control; format: functional; set-up: scale not given: the % may be the effect or the level left
[15] = test system: Mus musculus; assay: Anti-inflammatory activity in C57BL/6J mouse model of CFA-induced chronic inflammatory pain assessed as reduction in paw edema at 1 mg/kg, ip measured for 0.5 to 6 hrs; format: functional, organism-based; settings: time 0.5-6 hrs
[16] = test system: Mus musculus; assay: Anti-nociceptive effect in CFA C57BL/6J mouse model with alpha7 nAChR knockout at 1 mg/kg, ip measured after 3 days; format: functional, organism-based; settings: time 3.0 day
[17] = target: T1, Neuronal acetylcholine receptor subunit alpha-9; assay: Agonist activity at human alpha9 nAChR expressed in xenopus laevis oocytes assessed as activation of acetylcholine-induced response by two electrode voltage-clamp assay; format: cell-based, Oocyte
[18] = target: T2, Neuronal acetylcholine receptor subunit alpha-7; assay: Antagonist activity at human alpha7 nAChR expressed in acetylcholine-treated xenopus laevis oocytes at 30 uM by two electrode voltage-clamp assay; format: cell-based; settings: Oocyte, filed as antagonist
[19] = target: T1, Neuronal acetylcholine receptor subunit alpha-9; assay: Agonist activity at human alpha9 nAChR expressed in xenopus laevis oocytes assessed as activation of acetylcholine-induced response by two electrode voltage-clamp assay (reference value: 1); format: cell-based; settings: Oocyte, filed as agonist
[20] = test system: Mus musculus; assay: Anti-inflammatory activity in C57BL/6J mouse model of CFA-induced chronic inflammatory pain assessed as reduction in paw edema at 1 to 3 mg/kg, ip measured for 0.5 to 6 hrs; format: functional, organism-based; settings: dose 1-3 mg/kg, time 0.5-6 hrs
[21] = test system: Mus musculus; assay: Anti-allodynic effect in C57BL/6J mouse model of CFA-induced chronic inflammatory pain assessed as reduction in mechanical hypersensitivity at 3 mg/kg, ip measured after 1 hr; format: functional, organism-based
[22] = test system: Mus musculus; assay: Anti-allodynic effect in C57BL/6J mouse model of CFA-induced chronic inflammatory pain assessed as reduction in mechanical hypersensitivity at 3 mg/kg, ip measured after 6 hrs; format: functional, organism-based
[23] = test system: Mus musculus; assay: Effect on von Frey responses in C57BL/6J mouse model of CFA-induced chronic inflammatory pain at 1 to 3 mg/kg, ip measured for 0.5 to 6 hrs; format: functional, organism-based; settings: dose 1-3 mg/kg, time 0.5-6 hrs
[24] = test system: Mus musculus; assay: Effect on locomotor activity in C57BL/6J mouse model of CFA-induced chronic inflammatory pain at 3 mg/kg, ip measured for 0.5 to 6 hrs; format: functional, organism-based; settings: time 0.5-6 hrs
[25] = target: T2, Neuronal acetylcholine receptor subunit alpha-7; assay: Antagonist activity at human alpha7 nAChR expressed in xenopus laevis oocytes assessed as inhibition of acetylcholine-induced response by two electrode voltage-clamp assay; format: cell-based, Oocyte
[26] = target: T2, Neuronal acetylcholine receptor subunit alpha-7; assay: Desensitization of human alpha7 nAChR expressed in acetylcholine-treated xenopus laevis oocytes at 30 uM pretreated with acetylcholine followed by compound treatment and re-treatment of acetylcholine thrice by two electrode voltage-clamp assay; format: cell-based; settings: Oocyte
[27] = target: T1, Neuronal acetylcholine receptor subunit alpha-9; assay: Antagonist activity at human alpha9 nAChR expressed in xenopus laevis oocytes assessed as inhibition of acetylcholine-induced response by two electrode voltage-clamp assay; format: cell-based, Oocyte

T1 sequence (Q9UGM1 whole entry): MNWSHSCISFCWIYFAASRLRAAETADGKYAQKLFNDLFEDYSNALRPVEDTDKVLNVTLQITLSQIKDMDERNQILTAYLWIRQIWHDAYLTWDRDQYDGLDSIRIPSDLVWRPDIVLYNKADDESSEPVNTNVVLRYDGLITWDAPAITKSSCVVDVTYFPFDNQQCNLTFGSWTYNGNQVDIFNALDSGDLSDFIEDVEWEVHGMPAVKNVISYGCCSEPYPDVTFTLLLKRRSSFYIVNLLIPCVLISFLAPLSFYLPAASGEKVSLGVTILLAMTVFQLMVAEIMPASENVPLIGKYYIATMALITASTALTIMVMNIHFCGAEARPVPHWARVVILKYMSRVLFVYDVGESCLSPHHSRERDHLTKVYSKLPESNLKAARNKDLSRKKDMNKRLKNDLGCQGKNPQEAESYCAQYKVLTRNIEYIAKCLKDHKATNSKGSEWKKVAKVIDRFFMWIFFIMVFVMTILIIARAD
T2 sequence (P36544 whole entry): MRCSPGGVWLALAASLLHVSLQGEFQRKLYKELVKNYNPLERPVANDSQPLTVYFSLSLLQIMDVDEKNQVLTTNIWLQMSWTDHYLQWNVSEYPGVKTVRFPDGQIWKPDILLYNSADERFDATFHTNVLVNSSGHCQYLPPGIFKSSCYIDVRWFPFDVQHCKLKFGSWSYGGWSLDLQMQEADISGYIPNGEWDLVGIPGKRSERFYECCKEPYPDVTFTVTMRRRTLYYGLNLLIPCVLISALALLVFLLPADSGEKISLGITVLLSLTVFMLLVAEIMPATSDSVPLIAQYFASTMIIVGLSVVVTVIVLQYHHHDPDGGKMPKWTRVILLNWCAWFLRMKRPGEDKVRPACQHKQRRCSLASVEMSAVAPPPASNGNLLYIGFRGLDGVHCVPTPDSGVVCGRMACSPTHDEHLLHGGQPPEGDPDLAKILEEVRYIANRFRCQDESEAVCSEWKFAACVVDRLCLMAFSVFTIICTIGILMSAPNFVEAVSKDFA

SMILES: O=C(c1ccc(-c2cccc(C(F)(F)F)c2)o1)N1CCN2CCC1CC2
Activity [1]: Active; Silent Agonist Activity Observed
Activity [2]: inactive

SMILES: CCSCCNC(=O)c1ccc(-c2cccc(C(F)(F)F)c2)o1
Activity [3]: inactive

SMILES: C1C[S+]2CCC(CC2)N1
Activity [3]: inactive
max activation [4]: 0.98
Activity [5]: inactive
Activity [6]: inactive
pEC50 [7]: 4.39

SMILES: CC[S+]1CCN(C(=O)c2ccc(-c3cccc(C(F)(F)F)c3)o2)CC1.O=S(=O)([O-])C(F)(F)F
Activity [8]: inactive
Activity [9]: 11.2
Activity ([3]; filed as agonist): Active; Silent Agonist Activity Observed
Activity [10]: No effect
Activity [11]: 0.016
Activity [12]: Active
Activity [13]: No effect
Activity [14]: 100%
Activity [15]: Active
Activity [16]: Active

SMILES: CSCCNC(=O)c1ccc(-c2cccc(C(F)(F)F)c2)o1
Activity [3]: inactive

SMILES: C[S+](C)CCCNC(=O)c1ccc(-c2cccc(C(F)(F)F)c2)o1
Activity ([3]; filed as agonist): Active; Silent Agonist Activity Observed

SMILES: O=C(c1ccco1)N1CC[S+]2CCC1CC2
Activity [18]: Active

SMILES: CC[S+]1CCCN(C(=O)c2ccc(-c3cccc(C(F)(F)F)c3)o2)CC1 (stereo unspecified)
Activity [18]: Active
pIC50 [27]: 5.39
pIC50 [25]: 4.58

SMILES: C[S+]1CCCN(C(=O)c2ccc(-c3cccc(C(F)(F)F)c3)o2)CC1 (stereo unspecified)
Activity ([3]; filed as agonist): Active; Silent Agonist Activity Observed
pIC50 [27]: 5.10

Now from value to compound, other results behind:

Activity [3]: inactive
SMILES: O=C(c1ccc(-c2cccc(C(F)(F)F)c2)o1)N1CCCSCC1

Activity [3]: inactive
SMILES: CSCCCNC(=O)c1ccc(-c2cccc(C(F)(F)F)c2)o1

pEC50 [17]: 5.62
Activity [18]: Active
max activation [19]: 0.18
pIC50 [25]: 5.55
SMILES: CC[S+](CC)CCNC(=O)c1ccc(-c2cccc(C(F)(F)F)c2)o1
Activity [20]: inactive
Activity [21]: Active
Activity [22]: inactive
Activity [23]: No effect
Activity [24]: No effect

Activity [3]: inactive
max activation [4]: 0.26
pEC50 [7]: 5.62
SMILES: C[S+]1CCN(C(=O)c2ccc(-c3cccc(C(F)(F)F)c3)o2)CC1
Activity [26]: inactive
Activity ([6]; filed as agonist): Active; Silent Agonist Activity Observed

Activity [3]: inactive
SMILES: O=C(c1ccc(-c2cccc(C(F)(F)F)c2)o1)N1CCSCC1

Activity [18]: Active
pIC50 [25]: 5.28
SMILES: O=C(c1ccc(-c2cccc(C(F)(F)F)c2)o1)N1CC[S+]2CCC1CC2

Activity [3]: inactive
SMILES: C[S+](C)CCNC(=O)c1ccc(-c2cccc(C(F)(F)F)c2)o1
